Experiments:
[1] = target: T1, Amine oxidase [flavin-containing] A (Homo sapiens, UniProt P21397); experiment: biochemical
T1 sequence (P21397 whole entry): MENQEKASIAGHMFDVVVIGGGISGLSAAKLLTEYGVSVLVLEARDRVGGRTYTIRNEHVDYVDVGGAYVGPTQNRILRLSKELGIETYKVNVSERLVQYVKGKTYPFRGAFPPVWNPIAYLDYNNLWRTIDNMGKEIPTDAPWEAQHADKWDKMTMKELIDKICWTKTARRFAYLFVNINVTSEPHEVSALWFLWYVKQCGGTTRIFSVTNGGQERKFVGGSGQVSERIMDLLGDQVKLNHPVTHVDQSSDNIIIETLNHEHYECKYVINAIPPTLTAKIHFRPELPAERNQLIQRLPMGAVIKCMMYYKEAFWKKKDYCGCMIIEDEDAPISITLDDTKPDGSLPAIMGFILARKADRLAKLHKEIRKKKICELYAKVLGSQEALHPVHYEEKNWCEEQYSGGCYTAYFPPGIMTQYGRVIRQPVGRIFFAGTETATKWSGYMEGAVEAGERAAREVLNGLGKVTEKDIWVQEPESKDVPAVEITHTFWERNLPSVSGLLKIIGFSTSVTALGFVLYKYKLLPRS
Description: Inhibition of human recombinant MAO-A expressed in baculovirus infected insect cells by luminescence assay

MV4-11 [2] = experiment: Antiproliferative activity against human MV4-11 cells after 3 days by MTS assay; type: functional, cell-based; details: MV4-11, 72 h
RPMI-8226 [3] = experiment: Antiproliferative activity against human RPMI8226 cells after 3 days by MTS assay; type: functional, cell-based; details: RPMI-8226, 72 h
MV4-11 [4] = experiment: Antiproliferative activity against human MV4-11 cells after 10 days by MTS assay; type: functional, cell-based; details: MV4-11, 240 h
[5] = target: T2, Lysine-specific histone demethylase 2 (Homo sapiens, UniProt Q8NB78)
T2 sequence (Q8NB78 whole entry): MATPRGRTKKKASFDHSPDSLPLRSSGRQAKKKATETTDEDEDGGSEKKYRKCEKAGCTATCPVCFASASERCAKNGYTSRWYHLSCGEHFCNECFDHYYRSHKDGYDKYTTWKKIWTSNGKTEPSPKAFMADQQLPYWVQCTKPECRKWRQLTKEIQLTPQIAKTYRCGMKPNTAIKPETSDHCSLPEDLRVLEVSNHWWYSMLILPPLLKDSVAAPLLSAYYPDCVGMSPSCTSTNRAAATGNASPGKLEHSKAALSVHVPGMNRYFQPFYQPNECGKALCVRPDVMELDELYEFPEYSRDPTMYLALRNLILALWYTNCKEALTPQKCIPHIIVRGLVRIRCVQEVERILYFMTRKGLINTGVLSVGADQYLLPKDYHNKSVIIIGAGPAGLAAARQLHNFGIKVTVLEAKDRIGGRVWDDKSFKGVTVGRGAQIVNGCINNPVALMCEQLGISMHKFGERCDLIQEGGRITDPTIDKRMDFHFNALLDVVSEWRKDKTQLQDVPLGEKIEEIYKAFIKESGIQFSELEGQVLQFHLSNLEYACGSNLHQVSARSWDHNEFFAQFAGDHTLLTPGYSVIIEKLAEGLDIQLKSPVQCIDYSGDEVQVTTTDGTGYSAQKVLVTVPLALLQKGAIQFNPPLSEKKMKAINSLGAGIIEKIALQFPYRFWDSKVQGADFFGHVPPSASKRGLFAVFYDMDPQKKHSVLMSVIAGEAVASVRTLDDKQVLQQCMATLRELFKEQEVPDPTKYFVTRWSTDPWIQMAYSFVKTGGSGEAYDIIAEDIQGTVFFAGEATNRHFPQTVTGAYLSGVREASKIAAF
Description: Inhibition of human full length LSD2 using biotin-labeled H3K4me2 (1 to 24 residues) as substrate after 1 hr by TR-FRET assay

RPMI-8226 [6] = experiment: Antiproliferative activity against human RPMI8226 cells after 10 days by MTS assay; type: functional, cell-based; details: RPMI-8226, 240 h
[7] = target: T3, Amine oxidase [flavin-containing] B (Homo sapiens, UniProt P27338); experiment: biochemical
T3 sequence (P27338 whole entry): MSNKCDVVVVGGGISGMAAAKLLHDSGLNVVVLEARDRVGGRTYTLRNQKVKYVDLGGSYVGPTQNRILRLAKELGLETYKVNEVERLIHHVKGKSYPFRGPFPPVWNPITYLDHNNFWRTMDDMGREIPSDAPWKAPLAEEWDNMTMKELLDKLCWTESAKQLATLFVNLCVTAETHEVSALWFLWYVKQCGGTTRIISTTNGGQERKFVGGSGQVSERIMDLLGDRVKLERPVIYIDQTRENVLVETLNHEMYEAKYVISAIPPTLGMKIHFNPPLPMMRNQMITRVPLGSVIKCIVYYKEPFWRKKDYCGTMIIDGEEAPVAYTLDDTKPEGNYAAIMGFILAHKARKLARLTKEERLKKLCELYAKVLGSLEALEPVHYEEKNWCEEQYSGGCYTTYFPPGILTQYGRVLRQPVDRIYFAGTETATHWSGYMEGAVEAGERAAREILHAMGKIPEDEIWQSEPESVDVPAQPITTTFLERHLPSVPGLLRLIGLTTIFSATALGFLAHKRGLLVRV
Description: Inhibition of human recombinant MAO-B expressed in baculovirus infected insect cells by luminescence assay

| IC50 [1] [µM] | IC50 (MV4-11 [2]) [µM] | IC50 (RPMI-8226 [3]) [µM] | IC50 (MV4-11 [4]) [µM] | IC50 (RPMI-8226 [6]) [µM] | IC50 [7] [µM] | Compound | IC50 [5] [µM] |
| --- | --- | --- | --- | --- | --- | --- | --- |
| > 100 |  |  |  |  | > 100 | N[C@H]1CC[C@H](N[C@@H]2[C@H]3Cc4ccccc4[C@H]32)CC1 (racemic) |  |
| > 100 |  |  |  |  | > 100 | N[C@H]1CC[C@@H](N[C@@H]2[C@H]3Cc4ccccc4[C@H]32)CC1 (racemic) |  |
| > 100 | > 20 | > 20 | 0.7 | > 20 | > 100 | N[C@H]1CC[C@H](N[C@H]2[C@H]3Cc4ccccc4[C@H]32)CC1 (racemic) |  |
| 79.7 |  |  |  |  | > 100 | COc1ncccc1CN[C@H]1[C@H]2Cc3ccccc3[C@H]21 (racemic) |  |
| > 100 |  |  |  |  | > 100 | COc1ncccc1CN[C@@H]1[C@H]2Cc3ccccc3[C@H]21 (racemic) | > 100 |
| > 100 | > 20 | > 20 | 0.2 | > 20 | > 100 | N[C@H]1CC[C@@H](N[C@H]2[C@H]3Cc4ccccc4[C@H]32)CC1 (racemic) |  |

| Compound | IC50 [1] [µM] | IC50 (MV4-11 [2]) [µM] | IC50 (RPMI-8226 [3]) [µM] | IC50 (MV4-11 [4]) [µM] | IC50 (RPMI-8226 [6]) [µM] | IC50 [7] [µM] | IC50 [5] [µM] |
| --- | --- | --- | --- | --- | --- | --- | --- |
| NC1CCC(N[C@@H]2C[C@H]2c2ccccc2)CC1 (stereo partly specified) | > 100 | > 20 | > 20 | 0.03 | > 20 |  | > 100 |
| N[C@@H]1[C@H]2Cc3ccccc3[C@@H]12 (relative stereo) | > 100 |  |  |  |  | > 100 |  |
| N[C@H]1[C@H]2Cc3ccccc3[C@@H]12 (relative stereo) | > 100 |  |  |  |  | > 100 |  |

From ChEMBL document CHEMBL4130492, “Tying up tranylcypromine: Novel selective histone lysine specific demethylase 1 (LSD1) inhibitors” (Eur J Med Chem, 2017)
